Assay results: patent publication US4386090A, “Nitrogen containing 2,3-dihydro naphthalenes, compositions and use” (Delalande S.A., priority 1980, dated 1983)
Where a name gives a salt, the structure may show the parent alone.

Experiments:
acute toxicity (LD 50) = conditions: in vivo, ip
Source text: To illustrate the invention, there are shown in table IV below, the results obtained in these two tests and the acute toxicity (LD 50) of some compounds of formula (I).

mice [1] = test: analgesic activity, phenylbenzoquinone test (E. SIEGMUND); assay type: in vivo; conditions: Mus musculus, ip, read-out: ED 50 analgesic property
Source text: Soc. Exp. Biol. and Med. 95, 729, (1957).

mice [2] = test: antidepressive activity, antagonism to ptosis after intravenous injection of reserpine; assay type: in vivo; conditions: Mus musculus, ip, 1 h, i.p., ptosis observed an hour after i.v. reserpine 2 mg/kg, read-out: ED 50 antidepressive property
Source text: GOURET and J. THOMAS in J. Pharmacol. (Paris) (1973), 4, 401.

Row | SMILES | LD50 (acute toxicity (LD 50)) [mg/kg] | ED50 (mice [1]) [mg/kg] | ED50 (mice [2]) [mg/kg]
1 | CN(C)CCC1Cc2c(Cl)cccc2C(c2ccccc2)=N1 (centres unmarked) [compound 18] | 70 | 1 | 
2 | CN1CCN(CC2Cc3c(Cl)cccc3C(c3ccccc3)=N2)CC1 (centres unmarked) [compound 94] | 140 | 22 | 
3 | CN(C)CCC1Cc2ccc(Cl)cc2C(c2ccccc2)=N1 (centres unmarked) [compound 19] | 95 | 4 | 3.8
4 | CN(C)CCC1COc2ccccc2C(c2ccccc2)=N1 (centres unmarked) [compound 45] | 160 | 16.5 | 12
5 | CN(C)CCCC1Cc2ccccc2C(c2ccccc2F)=N1 (centres unmarked) [compound 39] | 100 | 1.9 | 0.7
6 | CN(C)CC1COc2ccccc2C(c2ccc(Cl)cc2)=N1 (centres unmarked) [compound 44] | 130 | 9.8 | 10
7 | CN(C)CC1COc2ccccc2C(c2ccccc2)=N1 (centres unmarked) [compound 40] | 80 | 3 | 
8 | COc1ccc(C2=NC(CCN(C)C)Cc3ccccc32)cc1 (centres unmarked) [compound 30] | 70 |  | 4.2
9 | CN(C)CC1Cc2ccccc2C(c2ccccc2F)=N1 (centres unmarked) [Code Number 8] | 35 | 2.3 | 1.1
10 | COc1ccccc1C1=NC(CCN(C)C)Cc2ccccc21 (centres unmarked) [compound 28] | 42 | 10 | 3
11 | CN(C)CCC1Cc2ccccc2C(c2cccc(C(F)(F)F)c2)=N1 (centres unmarked) [compound 104] | 62 | 4.3 | 
12 | CN(C)CC1Cc2ccc(Cl)cc2C(c2ccccc2F)=N1 (centres unmarked) [Code Number 9] | 52 | 3 | 4.3
13 | CN(C)CC1COc2ccccc2C(c2cccc(Cl)c2)=N1 (centres unmarked) [compound 43] | 65 | 10 | 3
14 | CN(C)CC1COc2ccccc2C(c2ccccc2F)=N1 (centres unmarked) [compound 41] | 62 | 7.2 | 3.5
15 | CN(C)CC1COc2ccccc2C(c2cccc(F)c2)=N1 (centres unmarked) [compound 87] | 100 |  | 30
16 | CN(C)CC1Cc2ccccc2C(c2ccccc2)=N1 (centres unmarked) [compound 6] | 41 | 5 | 3.5
17 | CN(C)CCC1Cc2ccccc2C(c2cccc(Cl)c2)=N1 (centres unmarked) [compound 26] | 65 | 7.6 | 5.4
18 | CN(C)CCC1Cc2ccccc2C(c2ccccc2F)=N1 (centres unmarked) [compound 22] | 70 | 6.2 | 0.6
19 | CN1CCN(CC2Cc3ccccc3C(c3ccccc3)=N2)CC1 (centres unmarked) [compound 7] | 170 | 6.2 | 10
20 | CN(C)CCC1Cc2ccccc2C(c2cccc(F)c2)=N1 (centres unmarked) [compound 23] | 55 | 2 | 2
21 | COc1cccc(C2=NC(CCN(C)C)Cc3ccccc32)c1 (centres unmarked) [compound 29] | 78 | 10 | 6.8
22 | CN(C)CCC1Cc2ccccc2C(c2ccccc2)=N1 (centres unmarked) [compound 17] | 65 | 6 | 1.5
23 | CN1CCN(CCC2Cc3c(Cl)cccc3C(c3ccccc3)=N2)CC1 (centres unmarked) [compound 106] | 145 | 12 | 
24 | CN(C)CC1Cc2ccc(Cl)cc2C(c2ccccc2)=N1 (centres unmarked) [Code Number 11] | 37 | 3 | 0.8
25 | CN(C)CCC1Cc2ccccc2C(c2ccc(Cl)cc2)=N1 (centres unmarked) [compound 27] | 70 | 11 | 4.4
26 | Cc1ccc2c(c1)C(c1ccccc1)=NC(CN1CCN(C)CC1)C2 (centres unmarked) [compound 99] | 130 | 30 | 
27 | Cc1ccc2c(c1)C(c1ccccc1)=NC(CN(C)C)C2 (centres unmarked) [compound 12] | 50 | 5 | 15
28 | COc1cc2c(cc1OC)C(c1ccccc1)=NC(CN(C)C)C2 (centres unmarked) [compound 14] | 135 | 15 | 

Row | SMILES | LD50 (acute toxicity (LD 50)) [mg/kg] | ED50 (mice [1]) [mg/kg] | ED50 (mice [2]) [mg/kg]
29 | CNCCC1Cc2ccccc2C(c2ccccc2F)=N1 (centres unmarked) [compound 21] | 70 | 10 | 1.2
30 | CN(C)CCC1C=C(c2ccccc2)c2ccccc2C1 (centres unmarked) [Code Number 2] | 110 | 7.3 | 1
31 | CN(C)CC1COc2ccccc2C(c2ccccc2Cl)=N1 (centres unmarked) [compound 42] | 70 | 3.5 | 7
32 | CN(C)CCC1Cc2ccccc2C(c2ccc([N+](=O)[O-])cc2)=N1 (centres unmarked) [compound 35] | 80 | 8 | 8
33 | CN(C)CCC1Cc2ccccc2C(C2CCCCC2)=N1 (centres unmarked) [compound 37] | 82 | 10 | 10
34 | CN(C)CCC1Cc2ccccc2C(c2ccccc2[N+](=O)[O-])=N1 (centres unmarked) [compound 34] | 77 | 3.4 | 1
35 | CN(C)CCC1C=C(c2ccccc2F)c2ccccc2C1 (centres unmarked) [compound 101] | 93 | 4.3 | 0.4
36 | CCN(CC)CC1Cc2ccc(C)cc2C(c2ccccc2)=N1 (centres unmarked) [compound 95] | 45 | 10 | 
37 | CN(C)CC1Cc2ccc(F)cc2C(c2ccccc2)=N1 (centres unmarked) [compound 10] | 60 | 4 | 2.8
38 | CN(C)CCC1Cc2ccccc2C(c2ccccc2Br)=N1 (centres unmarked) [compound 36] | 77 |  | 2.4
39 | Cc1ccccc1C1=NC(CCN(C)C)Cc2ccccc21 (centres unmarked) [compound 31] | 50 | 5.6 | 1.8
40 | COc1ccc2c(c1)C(c1ccccc1)=NC(CN1CCN(C)CC1)C2 (centres unmarked) [compound 100] | 140 | 30 | 9
41 | CN(C)CC1C=C(c2ccccc2)c2ccccc2C1 (centres unmarked) [Code Number 1, 3-Dimethylaminomethyl 1-phenyl 3,4-dihydro naphthalene, oxalate] | 62 | 6 | 10
42 | CN(C)CCC1Cc2ccccc2C(c2cccnc2)=N1 (centres unmarked) [compound 108] | 90 | 7.6 | 12
43 | CNCCC1Cc2ccccc2C(c2ccccc2)=N1 (centres unmarked) [compound 16] | 65 | 10 | 8.2
44 | Cc1ccc2c(c1)C(c1ccccc1)=NC(CN1CCCCC1)C2 (centres unmarked) [compound 97] | 52 | 10 | 
45 | NCCC1Cc2ccccc2C(c2ccccc2F)=N1 (centres unmarked) [compound 20] | 62 | 3.7 | 1.8
46 | COc1cc2c(cc1OC)C(c1ccccc1)=NC(CCN(C)C)C2 (centres unmarked) [compound 105] | 165 | 12 | 30
47 | CN(C)CCC1Cc2ccccc2C(c2ccccc2C(F)(F)F)=N1 (centres unmarked) [compound 103] | 70 |  | 3.8
48 | CN(C)CCC1Cc2ccccc2C(c2ccccc2Cl)=N1 (centres unmarked) [compound 25] | 60 | 3.8 | 3.7
49 | NCCC1Cc2ccccc2C(c2ccccc2)=N1 (centres unmarked) [compound 15] | 67 | 10 | 0.9
50 | Cc1ccc2c(c1)C(c1ccccc1)=NC(CN1CCOCC1)C2 (centres unmarked) [compound 98] | 125 | 30 | 
51 | Cc1ccc(C2=NC(CCN(C)C)Cc3ccccc32)cc1 (centres unmarked) [compound 33] | 70 | 8.8 | 2.7
52 | CN(C)CCC1Cc2ccccc2C(c2ccccn2)=N1 (centres unmarked) [compound 86] | 94 | 10 | 4
53 | CN(C)CCCC1Cc2ccccc2C(c2ccccc2)=N1 (centres unmarked) [compound 38] | 85 |  | 3.4
54 | CN(C)CCC1Cc2ccccc2C(c2ccc(F)cc2)=N1 (centres unmarked) [compound 24] | 61 | 8.4 | 2.1
55 | COc1ccc2c(c1)C(c1ccccc1)=NC(CN(C)C)C2 (centres unmarked) [compound 13] | 65 | 3 | 
